According to patent US20150296790A1, “SILICON-CONTAINING COMPOUND AQUEOUS SOLUTION AND ANTIBACTERIAL/ANTIVIRAL AGENT INCLUDING SAID SOLUTION” (JEX CO., LTD., priority 2012, published 2015):

Test: Stability over time (three-month storage tests, visual)
Assay type: physicochemical
Details: purified water

CCCCCCCCCCCCCCCCCC[N+](C)(C)CCC[Si](OCC)(OCC)OCC.[Cl-] [Compound E, Octadecyl dimethyl(3-triethoxysilylpropyl)ammonium chloride]
Change Over 3 Months (Accelerated Test at 40° C., Cold Test at 5° C., Ambient Test at 25° C.) (DEXYPEARL 1 w/w %, Compound E 0.1 w/w %): Not clear but stable | Change Over 3 Months (Accelerated Test at 40° C., Cold Test at 5° C., Ambient Test at 25° C.) (DEXYPEARL 2 w/w %, Compound E 0.1 w/w %): Not clear but stable | Change Over 3 Months (Accelerated Test at 40° C., Cold Test at 5° C., Ambient Test at 25° C.) (DEXYPEARL 3 w/w %, Compound E 0.1 w/w %): Not clear but stable | Change Over 3 Months (Accelerated Test at 40° C., Cold Test at 5° C., Ambient Test at 25° C.) (DEXYPEARL 4 w/w %, Compound E 0.1 w/w %): Not clear but stable | Change Over 3 Months (Accelerated Test at 40° C., Cold Test at 5° C., Ambient Test at 25° C.) (DEXYPEARL 5 w/w %, Compound E 0.1 w/w %): Not clear but stable | Change Over 3 Months (Accelerated Test at 40° C., Cold Test at 5° C., Ambient Test at 25° C.) (DEXYPEARL 6 w/w %, Compound E 0.1 w/w %): Not clear but stable | Change Over 3 Months (Accelerated Test at 40° C., Cold Test at 5° C., Ambient Test at 25° C.) (DEXYPEARL 7 w/w %, Compound E 0.1 w/w %): Not clear but stable | Change Over 3 Months (Accelerated Test at 40° C., Cold Test at 5° C., Ambient Test at 25° C.) (DEXYPEARL 8 w/w %, Compound E 0.1 w/w %): Not clear but stable | Change Over 3 Months (Accelerated Test at 40° C., Cold Test at 5° C., Ambient Test at 25° C.) (DEXYPEARL 9 w/w %, Compound E 0.1 w/w %): Not clear but stable | Change Over 3 Months (Accelerated Test at 40° C., Cold Test at 5° C., Ambient Test at 25° C.) (DEXYPEARL 10 w/w %, Compound E 0.1 w/w %): Not clear but stable | Change Over 3 Months (Accelerated Test at 40° C., Cold Test at 5° C., Ambient Test at 25° C.) (DEXYPEARL 20 w/w %, Compound E 0.1 w/w %): Precipitated | Change Over 3 Months (Accelerated Test at 40° C., Cold Test at 5° C., Ambient Test at 25° C.) (DEXYPEARL 30 w/w %, Compound E 0.1 w/w %): Precipitated | Change Over 3 Months (Accelerated Test at 40° C., Cold Test at 5° C., Ambient Test at 25° C.) (DEXYPEARL 40 w/w %, Compound E 0.1 w/w %): Precipitated | Change Over 3 Months (Accelerated Test at 40° C., Cold Test at 5° C., Ambient Test at 25° C.) (ISOELEAT 1 w/w %, Compound E 0.1 w/w %): Not clear but stable | Change Over 3 Months (Accelerated Test at 40° C., Cold Test at 5° C., Ambient Test at 25° C.) (ISOELEAT 2 w/w %, Compound E 0.1 w/w %): Not clear but stable | Change Over 3 Months (Accelerated Test at 40° C., Cold Test at 5° C., Ambient Test at 25° C.) (ISOELEAT 3 w/w %, Compound E 0.1 w/w %): Not clear but stable | Change Over 3 Months (Accelerated Test at 40° C., Cold Test at 5° C., Ambient Test at 25° C.) (ISOELEAT 4 w/w %, Compound E 0.1 w/w %): Not clear but stable | Change Over 3 Months (Accelerated Test at 40° C., Cold Test at 5° C., Ambient Test at 25° C.) (ISOELEAT 5 w/w %, Compound E 0.1 w/w %): Not clear but stable | Change Over 3 Months (Accelerated Test at 40° C., Cold Test at 5° C., Ambient Test at 25° C.) (ISOELEAT 6 w/w %, Compound E 0.1 w/w %): Not clear but stable | Change Over 3 Months (Accelerated Test at 40° C., Cold Test at 5° C., Ambient Test at 25° C.) (ISOELEAT 7 w/w %, Compound E 0.1 w/w %): Not clear but stable | Change Over 3 Months (Accelerated Test at 40° C., Cold Test at 5° C., Ambient Test at 25° C.) (ISOELEAT 8 w/w %, Compound E 0.1 w/w %): Not clear but stable | Change Over 3 Months (Accelerated Test at 40° C., Cold Test at 5° C., Ambient Test at 25° C.) (ISOELEAT 9 w/w %, Compound E 0.1 w/w %): Not clear but stable | Change Over 3 Months (Accelerated Test at 40° C., Cold Test at 5° C., Ambient Test at 25° C.) (ISOELEAT 10 w/w %, Compound E 0.1 w/w %): Precipitated | Change Over 3 Months (Accelerated Test at 40° C., Cold Test at 5° C., Ambient Test at 25° C.) (ISOELEAT 20 w/w %, Compound E 0.1 w/w %): Precipitated | Change Over 3 Months (Accelerated Test at 40° C., Cold Test at 5° C., Ambient Test at 25° C.) (ISOELEAT 30 w/w %, Compound E 0.1 w/w %): Precipitated | Change Over 3 Months (Accelerated Test at 40° C., Cold Test at 5° C., Ambient Test at 25° C.) (ISOELEAT 40 w/w %, Compound E 0.1 w/w %): Precipitated | Change Over 3 Months (Accelerated Test at 40° C., Cold Test at 5° C., Ambient Test at 25° C.) (ISOELEAT 50 w/w %, Compound E 0.1 w/w %): Precipitated | Change Over 3 Months (Accelerated Test at 40° C., Cold Test at 5° C., Ambient Test at 25° C.) (α-CD 1 w/w %, Compound E 0.1 w/w %): Stable | Change Over 3 Months (Accelerated Test at 40° C., Cold Test at 5° C., Ambient Test at 25° C.) (α-CD 1 w/w %, Compound E 0.2 w/w %): Stable | Change Over 3 Months (Accelerated Test at 40° C., Cold Test at 5° C., Ambient Test at 25° C.) (α-CD 1 w/w %, Compound E 0.3 w/w %): Stable | Change Over 3 Months (Accelerated Test at 40° C., Cold Test at 5° C., Ambient Test at 25° C.) (α-CD 1 w/w %, Compound E 0.4 w/w %): Stable | Change Over 3 Months (Accelerated Test at 40° C., Cold Test at 5° C., Ambient Test at 25° C.) (α-CD 1 w/w %, Compound E 0.5 w/w %): Stable | Change Over 3 Months (Accelerated Test at 40° C., Cold Test at 5° C., Ambient Test at 25° C.) (α-CD 1 w/w %, Compound E 0.6 w/w %): Stable | Change Over 3 Months (Accelerated Test at 40° C., Cold Test at 5° C., Ambient Test at 25° C.) (α-CD 1 w/w %, Compound E 0.7 w/w %): Stable | Change Over 3 Months (Accelerated Test at 40° C., Cold Test at 5° C., Ambient Test at 25° C.) (α-CD 1 w/w %, Compound E 0.8 w/w %): Clear but some precipitation was observed | Change Over 3 Months (Accelerated Test at 40° C., Cold Test at 5° C., Ambient Test at 25° C.) (α-CD 1 w/w %, Compound E 0.9 w/w %): Clear but some precipitation was observed | Change Over 3 Months (Accelerated Test at 40° C., Cold Test at 5° C., Ambient Test at 25° C.) (α-CD 1 w/w %, Compound E 1 w/w %): Clear but some precipitation was observed | Change Over 3 Months (Accelerated Test at 40° C., Cold Test at 5° C., Ambient Test at 25° C.) (α-CD 7 w/w %, Compound E 0.1 w/w %): Stable | Change Over 3 Months (Accelerated Test at 40° C., Cold Test at 5° C., Ambient Test at 25° C.) (α-CD 7 w/w %, Compound E 0.2 w/w %): Stable | Change Over 3 Months (Accelerated Test at 40° C., Cold Test at 5° C., Ambient Test at 25° C.) (α-CD 7 w/w %, Compound E 0.3 w/w %): Stable | Change Over 3 Months (Accelerated Test at 40° C., Cold Test at 5° C., Ambient Test at 25° C.) (α-CD 7 w/w %, Compound E 0.4 w/w %): Stable | Change Over 3 Months (Accelerated Test at 40° C., Cold Test at 5° C., Ambient Test at 25° C.) (α-CD 7 w/w %, Compound E 0.5 w/w %): Stable | Change Over 3 Months (Accelerated Test at 40° C., Cold Test at 5° C., Ambient Test at 25° C.) (α-CD 7 w/w %, Compound E 0.6 w/w %): Stable | Change Over 3 Months (Accelerated Test at 40° C., Cold Test at 5° C., Ambient Test at 25° C.) (α-CD 7 w/w %, Compound E 0.7 w/w %): Stable | Change Over 3 Months (Accelerated Test at 40° C., Cold Test at 5° C., Ambient Test at 25° C.) (α-CD 7 w/w %, Compound E 0.8 w/w %): Stable | Change Over 3 Months (Accelerated Test at 40° C., Cold Test at 5° C., Ambient Test at 25° C.) (α-CD 7 w/w %, Compound E 0.9 w/w %): Stable | Change Over 3 Months (Accelerated Test at 40° C., Cold Test at 5° C., Ambient Test at 25° C.) (α-CD 7 w/w %, Compound E 1 w/w %): Stable | Change Over 3 Months (Accelerated Test at 40° C., Cold Test at 5° C., Ambient Test at 25° C.) (β-CD 1 w/w %, Compound E 0.1 w/w %): Not changed | Change Over 3 Months (Accelerated Test at 40° C., Cold Test at 5° C., Ambient Test at 25° C.) (β-CD 1 w/w %, Compound E 0.2 w/w %): Not changed | Change Over 3 Months (Accelerated Test at 40° C., Cold Test at 5° C., Ambient Test at 25° C.) (β-CD 1 w/w %, Compound E 0.3 w/w %): Not changed | Change Over 3 Months (Accelerated Test at 40° C., Cold Test at 5° C., Ambient Test at 25° C.) (β-CD 1 w/w %, Compound E 0.4 w/w %): Not changed | Change Over 3 Months (Accelerated Test at 40° C., Cold Test at 5° C., Ambient Test at 25° C.) (β-CD 1 w/w %, Compound E 0.5 w/w %): Not changed | Change Over 3 Months (Accelerated Test at 40° C., Cold Test at 5° C., Ambient Test at 25° C.) (β-CD 1 w/w %, Compound E 0.6 w/w %): Not changed | Change Over 3 Months (Accelerated Test at 40° C., Cold Test at 5° C., Ambient Test at 25° C.) (β-CD 1 w/w %, Compound E 0.7 w/w %): Not changed | Change Over 3 Months (Accelerated Test at 40° C., Cold Test at 5° C., Ambient Test at 25° C.) (β-CD 1 w/w %, Compound E 0.8 w/w %): Not changed | Change Over 3 Months (Accelerated Test at 40° C., Cold Test at 5° C., Ambient Test at 25° C.) (β-CD 1 w/w %, Compound E 0.9 w/w %): Not changed | Change Over 3 Months (Accelerated Test at 40° C., Cold Test at 5° C., Ambient Test at 25° C.) (β-CD 1 w/w %, Compound E 1 w/w %): Not changed | Change Over 3 Months (Accelerated Test at 40° C., Cold Test at 5° C., Ambient Test at 25° C.) (γ-CD 10 w/w %, Compound E 0.1 w/w %): Precipitated | Change Over 3 Months (Accelerated Test at 40° C., Cold Test at 5° C., Ambient Test at 25° C.) (γ-CD 10 w/w %, Compound E 0.2 w/w %): Precipitated | Change Over 3 Months (Accelerated Test at 40° C., Cold Test at 5° C., Ambient Test at 25° C.) (γ-CD 10 w/w %, Compound E 0.3 w/w %): Precipitated | Change Over 3 Months (Accelerated Test at 40° C., Cold Test at 5° C., Ambient Test at 25° C.) (γ-CD 10 w/w %, Compound E 0.4 w/w %): Precipitated | Change Over 3 Months (Accelerated Test at 40° C., Cold Test at 5° C., Ambient Test at 25° C.) (γ-CD 10 w/w %, Compound E 0.5 w/w %): Precipitated | Change Over 3 Months (Accelerated Test at 40° C., Cold Test at 5° C., Ambient Test at 25° C.) (γ-CD 10 w/w %, Compound E 0.6 w/w %): Precipitated | Change Over 3 Months (Accelerated Test at 40° C., Cold Test at 5° C., Ambient Test at 25° C.) (γ-CD 10 w/w %, Compound E 0.7 w/w %): Precipitated | Change Over 3 Months (Accelerated Test at 40° C., Cold Test at 5° C., Ambient Test at 25° C.) (γ-CD 10 w/w %, Compound E 0.8 w/w %): Precipitated | Change Over 3 Months (Accelerated Test at 40° C., Cold Test at 5° C., Ambient Test at 25° C.) (γ-CD 10 w/w %, Compound E 0.9 w/w %): Precipitated | Change Over 3 Months (Accelerated Test at 40° C., Cold Test at 5° C., Ambient Test at 25° C.) (γ-CD 10 w/w %, Compound E 1 w/w %): Precipitated
